Results published in ChEMBL document CHEMBL1201862, “PubChem BioAssay data set” (2004).
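Each compound was tested at five concentrations against cells in 96-well plates for 48 hours. GI50: concentration for 50% inhibition of growth.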 Activity calls are given as the source filed them. No stated cut-off is given here; in the data, active = GI50 up to about 1.1 µM and inactive = higher.

What was measured:
Assay in all cases: DTP human tumour cell line panel, 48 h
ACHN = test system: ACHN
BT-549 = test system: BT-549
CCRF-CEM = test system: CCRF-CEM
Hs-578T = test system: Hs-578T
K562 = test system: K562
KM12 = test system: KM12
LOX IMVI = test system: LOX IMVI
M14 = test system: M14
MDA-N = test system: MDA-N
NCI-H23 = test system: NCI-H23
NCI/ADR-RES = test system: NCI/ADR-RES
OVCAR-8 = test system: OVCAR-8
SF-268 = test system: SF-268
SF-295 = test system: SF-295
SK-MEL-5 = test system: SK-MEL-5
SN12C = test system: SN12C
TK-10 = test system: TK-10
UO-31 = test system: UO-31
HCT-15 = test system: HCT-15

SMILES	GI50 (ACHN)	GI50 (BT-549)	GI50 (CCRF-CEM)	GI50 (Hs-578T)	GI50 (K562)	GI50 (KM12)	GI50 (LOX IMVI)	GI50 (M14)	GI50 (MDA-N)	GI50 (NCI-H23)	GI50 (NCI/ADR-RES)	GI50 (OVCAR-8)	GI50 (SF-268)	GI50 (SF-295)	GI50 (SK-MEL-5)	GI50 (SN12C)	GI50 (TK-10)	GI50 (UO-31)	GI50 (HCT-15) [µM]
Cn1c(=O)c2c(O)cc(N)nc2n(C)c1=O	> 100 µM (inactive)	> 100 µM (inactive)	> 100 µM (inactive)	> 100 µM (inactive)	> 100 µM (inactive)	> 100 µM (inactive)	> 100 µM (inactive)	> 100 µM (inactive)	> 100 µM (inactive)	> 100 µM (inactive)	> 100 µM (inactive)	63.4 µM (inactive)	> 100 µM (inactive)	> 100 µM (inactive)	> 100 µM (inactive)	> 100 µM (inactive)	> 100 µM (inactive)	> 100 µM (inactive)	
CC1CCCC(CC(=O)O)(CC(=O)O)C1 (centres undefined)	> 100 µM (inactive)	> 100 µM (inactive)	> 100 µM (inactive)	> 100 µM (inactive)	> 100 µM (inactive)	> 100 µM (inactive)	> 100 µM (inactive)	> 100 µM (inactive)	> 100 µM (inactive)	> 100 µM (inactive)	> 100 µM (inactive)	> 100 µM (inactive)	> 100 µM (inactive)		> 100 µM (inactive)	> 100 µM (inactive)	> 100 µM (inactive)	> 100 µM (inactive)	> 100
CC1C2(C)OC(=N)C(C#N)(C(c3ccccc3)O2)C1(C#N)C#N (centres undefined)	38.1 µM (inactive)	42.3 µM (inactive)	17.6 µM (inactive)	24.6 µM (inactive)	25.1 µM (inactive)	51.5 µM (inactive)	17.2 µM (inactive)	13.9 µM (inactive)	18.2 µM (inactive)	28.2 µM (inactive)	42.9 µM (inactive)	30.4 µM (inactive)	25.5 µM (inactive)	86.5 µM (inactive)	16.7 µM (inactive)	16.6 µM (inactive)	36 µM (inactive)	39.8 µM (inactive)	10.9
CN1CC[C@]2(c3cccc(O)c3)CC(=O)/C(=C/c3ccccc3)[C@@H]1C2.[O-][Cl+3]([O-])([O-])O	2.25 µM (inactive)	2.44 µM (inactive)	2.13 µM (inactive)	4.62 µM (inactive)	1.64 µM (inactive)	3.61 µM (inactive)	1.94 µM (inactive)	2.73 µM (inactive)	1.58 µM (inactive)	4.97 µM (inactive)	2.98 µM (inactive)	3.03 µM (inactive)	3.17 µM (inactive)	3.24 µM (inactive)	3.12 µM (inactive)	2.99 µM (inactive)	13.9 µM (inactive)	2.51 µM (inactive)	1.66
O=S1(=O)c2ccccc2N2CCCc3cc(Cl)cc1c32	> 100 µM (inactive)	> 100 µM (inactive)	> 100 µM (inactive)	27.4 µM (inactive)	> 100 µM (inactive)	> 100 µM (inactive)	> 100 µM (inactive)	> 100 µM (inactive)	> 100 µM (inactive)		> 100 µM (inactive)	> 100 µM (inactive)	34.4 µM (inactive)	29.3 µM (inactive)	> 100 µM (inactive)	> 100 µM (inactive)	> 10 µM (inactive)	> 100 µM (inactive)	> 100
CC(=O)Oc1c(N2CCCCC2)c(C(=O)c2ccccc2)c(O)c2ccn(N(C)C)c12	18.5 µM (inactive)	20.6 µM (inactive)	15.7 µM (inactive)	28.8 µM (inactive)	34.4 µM (inactive)	10.9 µM (inactive)	14.1 µM (inactive)	21.7 µM (inactive)	17.9 µM (inactive)	18.9 µM (inactive)	15.7 µM (inactive)	20.7 µM (inactive)	21.9 µM (inactive)	15 µM (inactive)	15.9 µM (inactive)	18.5 µM (inactive)	16.7 µM (inactive)	17.6 µM (inactive)	18
Cc1cc(=O)c2ccccc2n1CCCCCCCCCCn1c(C)cc(=O)c2ccccc21	25.2 µM (inactive)	11 µM (inactive)	12.1 µM (inactive)	23.8 µM (inactive)	4.68 µM (inactive)	15.9 µM (inactive)	5.53 µM (inactive)	34.9 µM (inactive)	17.5 µM (inactive)	3.94 µM (inactive)	16.6 µM (inactive)	16.8 µM (inactive)	30.2 µM (inactive)	> 10 µM (inactive)	0.64 µM (active)	21.4 µM (inactive)	14.1 µM (inactive)	12 µM (inactive)	31.3
CN(C)CCCNC(=O)c1cc(NS(=O)(=O)c2ccc3c(c2)C(=O)c2ccccc2C3=O)cn1C	14.6 µM (inactive)	24.5 µM (inactive)	21.5 µM (inactive)	76.4 µM (inactive)	30 µM (inactive)	17.8 µM (inactive)	13.8 µM (inactive)	22.3 µM (inactive)	28.1 µM (inactive)	24.1 µM (inactive)	> 100 µM (inactive)	40.3 µM (inactive)	29.5 µM (inactive)	31.3 µM (inactive)	13.1 µM (inactive)	29.1 µM (inactive)	25.2 µM (inactive)	56.4 µM (inactive)	42.8
OC1(c2ccccc2)CC2CCC(C1)N2CCCC1(c2ccc(F)cc2)OCCO1 (centres undefined)	> 100 µM (inactive)	> 100 µM (inactive)	3.66 µM (inactive)	> 100 µM (inactive)	> 100 µM (inactive)		> 100 µM (inactive)	21 µM (inactive)	> 100 µM (inactive)	> 100 µM (inactive)	15.6 µM (inactive)	16.3 µM (inactive)	> 100 µM (inactive)	3.26 µM (inactive)	21.3 µM (inactive)	> 100 µM (inactive)	> 100 µM (inactive)	54.3 µM (inactive)	> 100
COC(=O)c1c(C)nc(C)c(N=O)c1-c1ccccc1C(F)(F)F	32.9 µM (inactive)	18.5 µM (inactive)	6 µM (inactive)	19 µM (inactive)	8.41 µM (inactive)	19.1 µM (inactive)	14.7 µM (inactive)	20 µM (inactive)	19.7 µM (inactive)	20.5 µM (inactive)	20.6 µM (inactive)	17.9 µM (inactive)	15.8 µM (inactive)	> 100 µM (inactive)	26.5 µM (inactive)	21.3 µM (inactive)	13.8 µM (inactive)	14.4 µM (inactive)	20.3
Cc1nn(C(=O)c2ccc(Cl)cc2)c2c1C(/C=C/c1ccccc1)SC(=N)N2 (centres undefined)	> 10 µM (inactive)	> 10 µM (inactive)	> 10 µM (inactive)	> 10 µM (inactive)	> 10 µM (inactive)	> 10 µM (inactive)	> 10 µM (inactive)	> 10 µM (inactive)	> 10 µM (inactive)	> 10 µM (inactive)	> 10 µM (inactive)	> 10 µM (inactive)	> 10 µM (inactive)	> 10 µM (inactive)	> 10 µM (inactive)	> 10 µM (inactive)	> 10 µM (inactive)		> 10
